Calls of active or inactive are those of the source.
How the values were obtained:
[1] = target: T1, Sentrin-specific protease 7 (Homo sapiens, UniProt Q9BQF6); assay type: functional;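 also: Luminescence-based dose-response confirmation of ultra-high-throughput screening hits, measuring inhibition of SENP7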
T1 sequence (Q9BQF6 whole entry): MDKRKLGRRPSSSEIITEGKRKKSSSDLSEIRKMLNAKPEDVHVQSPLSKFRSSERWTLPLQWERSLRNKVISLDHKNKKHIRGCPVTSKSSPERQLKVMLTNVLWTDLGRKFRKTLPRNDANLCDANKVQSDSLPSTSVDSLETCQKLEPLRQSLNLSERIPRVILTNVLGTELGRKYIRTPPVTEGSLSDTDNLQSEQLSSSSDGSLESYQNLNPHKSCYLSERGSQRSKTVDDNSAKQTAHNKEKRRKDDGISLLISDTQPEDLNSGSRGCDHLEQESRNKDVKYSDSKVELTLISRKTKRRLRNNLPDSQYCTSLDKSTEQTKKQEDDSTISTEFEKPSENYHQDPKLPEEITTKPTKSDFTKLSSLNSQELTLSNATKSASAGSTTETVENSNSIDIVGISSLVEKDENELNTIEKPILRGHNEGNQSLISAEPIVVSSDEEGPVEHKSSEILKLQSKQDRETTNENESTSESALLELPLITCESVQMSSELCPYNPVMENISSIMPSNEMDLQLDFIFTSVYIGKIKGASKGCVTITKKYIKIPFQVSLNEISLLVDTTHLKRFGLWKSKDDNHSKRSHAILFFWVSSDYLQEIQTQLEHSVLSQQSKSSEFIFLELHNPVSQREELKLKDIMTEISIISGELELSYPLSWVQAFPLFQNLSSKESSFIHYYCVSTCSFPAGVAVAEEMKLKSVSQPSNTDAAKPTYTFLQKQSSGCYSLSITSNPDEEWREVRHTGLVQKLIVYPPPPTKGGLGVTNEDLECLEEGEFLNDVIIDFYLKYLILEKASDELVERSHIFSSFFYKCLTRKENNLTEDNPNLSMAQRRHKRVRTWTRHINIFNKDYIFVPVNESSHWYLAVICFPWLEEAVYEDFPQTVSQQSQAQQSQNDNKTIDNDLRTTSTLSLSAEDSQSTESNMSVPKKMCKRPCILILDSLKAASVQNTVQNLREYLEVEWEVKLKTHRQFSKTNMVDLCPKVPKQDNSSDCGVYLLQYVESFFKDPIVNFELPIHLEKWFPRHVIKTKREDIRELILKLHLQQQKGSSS

[2] = target: T2, Apoptotic protease-activating factor 1 (Homo sapiens, UniProt O14727); assay type: functional
T2 sequence (O14727 whole entry): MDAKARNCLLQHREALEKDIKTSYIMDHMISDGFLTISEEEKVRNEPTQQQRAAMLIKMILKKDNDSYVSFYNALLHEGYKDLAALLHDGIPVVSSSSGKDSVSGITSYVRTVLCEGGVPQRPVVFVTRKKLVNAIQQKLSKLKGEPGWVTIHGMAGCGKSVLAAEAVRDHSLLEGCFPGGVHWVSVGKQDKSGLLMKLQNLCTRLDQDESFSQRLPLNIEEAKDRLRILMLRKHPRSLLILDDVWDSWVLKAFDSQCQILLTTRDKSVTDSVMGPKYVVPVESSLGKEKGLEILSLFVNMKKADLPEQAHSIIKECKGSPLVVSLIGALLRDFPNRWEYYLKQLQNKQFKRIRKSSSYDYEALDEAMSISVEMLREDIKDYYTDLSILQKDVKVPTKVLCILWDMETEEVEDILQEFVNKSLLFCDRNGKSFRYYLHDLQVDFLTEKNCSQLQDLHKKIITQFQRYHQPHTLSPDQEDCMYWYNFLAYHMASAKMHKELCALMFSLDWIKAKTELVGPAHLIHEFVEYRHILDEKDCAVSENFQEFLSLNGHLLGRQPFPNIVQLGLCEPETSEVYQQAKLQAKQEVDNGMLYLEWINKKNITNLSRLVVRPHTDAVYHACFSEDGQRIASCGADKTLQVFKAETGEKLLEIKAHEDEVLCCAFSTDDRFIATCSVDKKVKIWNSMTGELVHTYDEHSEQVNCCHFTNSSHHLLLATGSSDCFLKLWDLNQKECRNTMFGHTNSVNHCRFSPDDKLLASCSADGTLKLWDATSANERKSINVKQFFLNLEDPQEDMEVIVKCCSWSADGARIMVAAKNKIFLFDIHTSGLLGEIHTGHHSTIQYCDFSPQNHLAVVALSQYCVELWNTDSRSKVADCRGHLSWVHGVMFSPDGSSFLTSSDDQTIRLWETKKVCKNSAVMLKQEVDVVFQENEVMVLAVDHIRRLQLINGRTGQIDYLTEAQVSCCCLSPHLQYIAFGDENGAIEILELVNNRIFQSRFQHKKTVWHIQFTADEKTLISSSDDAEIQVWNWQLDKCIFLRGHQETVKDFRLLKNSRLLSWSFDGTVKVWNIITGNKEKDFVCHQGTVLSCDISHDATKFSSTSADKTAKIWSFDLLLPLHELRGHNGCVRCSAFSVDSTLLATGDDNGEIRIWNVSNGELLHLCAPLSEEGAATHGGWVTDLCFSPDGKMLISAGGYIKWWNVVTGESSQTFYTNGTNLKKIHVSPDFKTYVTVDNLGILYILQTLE

[3] = target: T3, Sentrin-specific protease 8 (Homo sapiens, UniProt Q96LD8); assay type: functional;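 also: luminescence read-out of SENP8 inhibition, dose-response confirmation following an ultra-high-throughput screen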
T3 sequence (Q96LD8 whole entry): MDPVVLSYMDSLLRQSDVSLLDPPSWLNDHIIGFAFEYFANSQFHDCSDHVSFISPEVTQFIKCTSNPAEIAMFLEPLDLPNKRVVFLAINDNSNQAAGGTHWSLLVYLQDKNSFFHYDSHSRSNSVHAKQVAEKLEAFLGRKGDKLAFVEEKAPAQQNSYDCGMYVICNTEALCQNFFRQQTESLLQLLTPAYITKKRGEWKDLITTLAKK

[4] = target: T4, Caspase-3 (Homo sapiens, UniProt P42574); assay type: functional;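 also: Dose-response selectivity test against caspase-3 for candidate inhibitors of sentrin-specific proteases (SENPs)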
T4 sequence (P42574 whole entry): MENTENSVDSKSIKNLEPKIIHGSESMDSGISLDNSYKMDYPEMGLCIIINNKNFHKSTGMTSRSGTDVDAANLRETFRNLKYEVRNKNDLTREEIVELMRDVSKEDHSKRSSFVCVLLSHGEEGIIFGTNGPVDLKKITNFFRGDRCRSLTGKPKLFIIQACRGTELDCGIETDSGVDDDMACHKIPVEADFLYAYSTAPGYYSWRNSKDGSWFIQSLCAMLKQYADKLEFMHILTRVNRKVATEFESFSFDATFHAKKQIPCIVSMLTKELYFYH

[5] = tested on: INS1; assay: beta cell apoptosis inhibitors, cytokine rescue, dose response, luminescence, retest (AID 449756); assay type: functional, cell-based; conditions: Rattus norvegicus;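 also: cell death triggered by IL-1 beta plus TNF-alpha plus IFN-gamma mixture; protective hits raise ATP signal compared with cytokine alone wells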
[6] = tested on: BJ; assay: cytotoxicity toward BJ-TERT fibroblasts, dose response, cell-based, RAS-independent, luminescence (AID 1933); assay type: functional; conditions: Homo sapiens
[7] = tested on: BJ; assay: cytotoxicity toward BJ-TERT-LT-ST fibroblasts, dose response, cell-based, RAS-independent, luminescence (AID 1935); assay type: functional; conditions: Homo sapiens;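 also: BJ fibroblasts immortalized with TERT plus LT and ST oncogenes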
[8] = tested on: BJ; assay: cells; assay type: functional, cell-based; conditions: Homo sapiens
[9] = cytotoxicity toward DRD oncogenic fibroblasts, dose response, cell-based, non-viral oncogenic, luminescence (AID 1934); assay type: functional; conditions: Homo sapiens

Row | Structure (SMILES) | IC50 [1] | IC50 [2] | IC50 [3] | IC50 [4] | AC50 [5] | EC50 [6] | EC50 [7] | EC50 [8] | EC50 [9]
1 | COc1ccccc1N(/N=C1\Sc2ccccc2C1=O)C(C)=O | 6.78 µM (active) | 13.3 µM (active) | 5.39 µM (active) | 27.8 µM (active) | – | – | – | – | –
2 | CCCC(=O)NC(c1ccc(N(C)C)cc1)c1ccc2cccnc2c1O (centres undefined) | – | – | – | – | 0.598 µM (active) | 2.5 µM (active) | 2.72 µM (active) | 3.42 µM (active) | 2.54 µM (active)
3 | CCc1cc[n+](C2=C([N-]S(=O)(=O)c3cccs3)C(=O)c3ccccc3C2=O)cc1 | 8.3 µM (active) | 11.2 µM (active) | 8.48 µM (active) | 12.5 µM (active) | 2.76 µM (active) | – | – | – | –
4 | O=C(NC1=C(NC2CCS(=O)(=O)C2)C(=O)c2ccccc2C1=O)c1ccccc1 (centres undefined) | – | 2.1 µM (active) | – | – | – | 11 µM (inconclusive) | > 75 µM (not active) | 3.28 µM (active) | 14.6 µM (active)
